Experimental data reported in patent publication US6613795B2, “Enantiomerically pure basic arylcycloalkylhydroxycarboxylic esters, processes for their preparation and their use in medicaments” (priority 1996, dated 2003).
Values belong to the molecule of their own block, whether it stands above or below them.

Columns and labels:
M2 = test: functional experiments on guinea pig atrium (GPA); type: cell-based
M2 receptors = target: T1, M2 receptors (Rattus norvegicus, UniProt P10980); test: [3H]-NMS binding studies on M2 receptors from preparations of rat hearts
T1 construct: M2 receptors from preparations of rat hearts; from tissue; host or cells: rat heart preparations
T1 sequence (P10980 1-466): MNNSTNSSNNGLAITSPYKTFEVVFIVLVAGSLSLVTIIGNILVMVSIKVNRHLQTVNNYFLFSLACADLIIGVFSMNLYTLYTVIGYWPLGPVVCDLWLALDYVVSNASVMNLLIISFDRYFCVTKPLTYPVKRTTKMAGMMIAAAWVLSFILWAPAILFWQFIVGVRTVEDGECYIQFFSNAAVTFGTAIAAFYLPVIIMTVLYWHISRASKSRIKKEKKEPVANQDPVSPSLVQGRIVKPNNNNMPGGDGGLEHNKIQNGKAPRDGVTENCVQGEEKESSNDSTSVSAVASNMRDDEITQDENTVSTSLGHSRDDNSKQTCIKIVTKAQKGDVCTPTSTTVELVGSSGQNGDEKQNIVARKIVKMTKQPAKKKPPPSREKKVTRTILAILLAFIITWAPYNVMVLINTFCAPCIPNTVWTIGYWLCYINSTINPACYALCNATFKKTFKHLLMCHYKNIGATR
Source text: c pKi values from [^3H]-NMS binding studies on M2 receptors from preparations of rat hearts

Compound: C[N+]1(C)CC[C@H](OC(=O)[C@@](O)(c2ccccc2)C2CCCC2)C1 [Ia, (3S,2′S)-3-[(cyclopentylhydroxyphenylacetyl)oxy]-1,1-dimethylpyrrolidinium iodide]
PA2 GPA (M2) (M2): 7.92 | Ki (M2 receptors): 13.2 nM

Ki (M2 receptors): 0.182 nM
Compound: C[N+]1(C)CC[C@H](OC(=O)[C@](O)(c2ccccc2)C2CCCC2)C1 [Ib, (3S,2′R)-3-[(cyclopentylhydroxyphenylacetyl)oxy]-1,1-dimethylpyrrolidinium iodide]

Compound: C[N+]1(C)CC[C@@H](OC(=O)[C@](O)(c2ccccc2)C2CCCC2)C1 [Ic, (3R,2′R)-3-[(cyclopentylhydroxyphenylacetyl)oxy]-1,1-dimethylpyrrolidinium iodide]
PA2 GPA (M2) (M2): 9.43

Compound: C[N+]1(C)CC[C@@H](OC(=O)[C@@](O)(c2ccccc2)C2CCCC2)C1 [Id, (3R,2′S)-3-[(cyclopentylhydroxyphenylacetyl)oxy]-1,1-dimethylpyrrolidinium iodide]
PA2 GPA (M2) (M2): 8.69 | Ki (M2 receptors): 1 nM
